“Also recorded” adds a separate entry of the source.
Assays:
[1] = target: T1, recombinant human GSK3β (Homo sapiens, UniProt P49841); assay: GSK3β kinase activity assay (Kinase-Glo luminescence); assay type: biochemical
T1 construct: purchased Biomol, Hamburg, Germany
Method: The kinase activity assay was performed as previously described by Schmole et. al., 2010 (Schmole et al., 2010, Novel indolylmaleimide acts as GSK-3beta inhibitor in human neural progenitor cells. Bioorganic medicinal chemistry, 18, 6785-95). Briefly, recombinant human GSK3β (Biomol, Hamburg, Germany) was incubated with its substrate phospho glycogen synthase peptide 2 (pGS2) (Millipore, Billerica, USA), ATP (Cell Signaling, Frankfurt am Main, Germany) and different concentrations of PDA-66 for 30 min at 30° C. After addition of Kinase-Glo (Promega, Mannheim, Germany) and 10 min of incubation at room temperature the luminescence signal was measured with a Glomax 96 microplate reader (Promega). More specifically, recombinant human GSK3β was incubated with pGS2, ATP and different concentrations of PDA-66. […] In each experiment the concentrations of PDA-66 and the control were tested with 8 replicates. * Significant treatment effect vs. DMSO control, α=0.05.
The effect of PDA-66 on the enzyme activity of GSK3β was determined by incubation of the enzyme with a specific substrate, PDA-66 and ATP. With growing inhibitory effect there is more ATP present after the incubation. In a second step remaining ATP is converted to a luminescence signal, which is inversely proportional to the enzyme activity.

[2] = tested on: Molt-4 cells; assay: Proliferation, cell counts by trypan blue staining; assay type: cell-based, human
Method: (§1) The human B-ALL cell lines SEM, RS4;11 and the human T-ALL cell lines Jurkat and Molt-4 were purchased from DSMZ (Germany) and cultured according to manufacturer's protocol. The corresponding medium was supplemented with 10% heat-inactivated fetal bovine serum (PAA, Pasching, Austria) and 1% penicillin and streptomycin (Biochrom AG, Berlin, Germany). The Molt-4 cells were cultured with medium supplemented with 20% heat-inactivated fetal bovine serum. All cells were maintained at 37° C. in 5% CO2. Cells (5×10^5/well) were seeded in 24 well plates (Nunc, Langenselbold, Germany) and incubated for up to 72 h with PDA-66. Treated cells were harvested after 4, 24, 48 and 72 h and used for further analyses.
(§2) Cell counts were determined using the trypan blue staining. Metabolic activity was analyzed by using tetrazolium compound WST-1 (Roche, Mannheim, Germany). In brief, triplicates of cells (5×10^4/well) were seeded in 96 well plates, treated with PDA-66 and incubated with 15 μl WST-1 for up to 4 h. The mitochondrial dehydrogenases reduce WST-1 to soluble formazan and cause a change of color, which correlates with the amount of metabolically active cells. Absorbance at 450 nm and a reference wavelength at 620 nm were determined by an ELISA Reader (Anthos, Krefeld, Germany). The absorbance of culture medium with supplemented WST-1 in the absence of cells was used as background control.
(§3) The influence of PDA-66 on proliferation in ALL cell lines SEM, RS4;11, Jurkat and Molt-4 was analyzed by incubation with different concentrations of the drug (0.001 μM to 10 μM). Metabolic activity was determined using WST-1 assay. […] Results are summarized in FIG. 2, whereby the individual nine bars for each set of experiments represent, from left to right, DMSO, 0.001 μM, 0.01 μM, 0.1 μM, 0.25 μM, 0.5 μM, 1.0 μM, 5 μM and 10 μM. After 48 h of incubation an inhibition of proliferation could be observed, but was more distinct after 72 h.

[3] = tested on: Jurkat cells; assay: Proliferation, cell counts by trypan blue staining; assay type: cell-based, human
Method: as §1, §2, §3

[4] = tested on: RS4;11 cells; assay: Proliferation, cell counts by trypan blue staining; assay type: cell-based, human
Method: as §1, §2, §3

[5] = tested on: SEM cells; assay: Proliferation, cell counts by trypan blue staining; assay type: cell-based, human
Method: as §1, §2, §3

[6] = tested on: Molt-4 cells; assay: Metabolic activity, WST-1 assay; assay type: cell-based, human; conditions: 0.5 μM PDA-66, 72 h, mean±SD
Method: as §1, §2, §3

[7] = tested on: Jurkat cells; assay: Metabolic activity, WST-1 assay; assay type: cell-based, human
Method: as §1, §2, §3

[8] = tested on: RS4;11 cells; assay: Metabolic activity, WST-1 assay; assay type: cell-based, human; conditions: 0.5 μM PDA-66, 72 h, mean±SD
Method: as §1, §2, §3

[9] = tested on: SEM cells; assay: Metabolic activity, WST-1 assay; assay type: cell-based, human
Method: as §1, §2, §3

[10] = tested on: cleavage of Caspase 3, 7 and PARP; assay: Western blot, induction of apoptosis; assay type: cell-based, human; conditions: all cell lines (SEM shown exemplarily); 48 h after addition
Method: (A) Cells were treated with PDA-66 for up to 72 h and stained with Annexin V FITC and Propidium iodide (PI). Rates of early apoptotic (FITC^+, PI^−) and late apoptotic and necrotic (FITC^+, PI^+) cells were measured by flow cytometry. Significant induction of apoptosis could be observed in all cell lines after 48 h of incubation as well as tendential induction of necrosis at both points of time. […] (B) Induction of apoptosis was confirmed by Western blot. Cells were treated with different concentrations of PDA-66 and total cell lysates (25 μg) were analyzed by Western blot to detect cleavage of Caspase 3, 7 and PARP. GAPDH was used as loading control.
Additionally, the effect of PDA-66 on apoptosis was determined by and western blot. For protein extraction cells were washed twice in PBS and lysed with RIPA buffer (50 mM Tris HCl pH 7.4; 150 mM NaCl; 0.1% SDS and 1% NP40) including protease and phosphatase inhibitors (Roche Applied Science, Mannheim, Germany). Samples were incubated for 20 min at 4° C. and frozen at −20° C. Cell extracts were thawed and centrifuged at 12000 g for 10 min at 4° C. Total protein concentration of supernatants was determined using Bio-Rad Protein Assay (Bio-Rad, München, Germany).
Equal amounts of protein samples were separated by SDS-polyacrylamid gel (8% or 15%) electrophoresis and transferred onto a PVDF membrane (Amersham Biosciences, Buckinghamshire, UK). […]

[11] = 0.5 μM PDA-66, 72 h, vs. DMSO control
[12] = 0.5 μM or more, seeded cells 5×10^5

T1 sequence (P49841 whole entry): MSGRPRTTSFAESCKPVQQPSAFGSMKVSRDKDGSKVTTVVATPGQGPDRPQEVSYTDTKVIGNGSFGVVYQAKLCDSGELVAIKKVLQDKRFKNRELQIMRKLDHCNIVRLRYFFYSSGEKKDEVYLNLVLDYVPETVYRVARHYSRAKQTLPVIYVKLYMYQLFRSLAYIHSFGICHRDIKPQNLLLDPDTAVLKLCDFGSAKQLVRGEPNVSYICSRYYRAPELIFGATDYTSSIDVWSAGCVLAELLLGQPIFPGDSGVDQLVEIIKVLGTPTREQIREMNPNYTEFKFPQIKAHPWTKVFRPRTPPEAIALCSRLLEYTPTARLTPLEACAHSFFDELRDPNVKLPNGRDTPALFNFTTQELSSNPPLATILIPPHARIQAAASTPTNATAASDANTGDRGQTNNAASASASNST

`CC(=O)c1ccc(C2=C(c3c(C)[nH]c4ccccc34)C(=O)N(C)C2=O)cc1` [PDA-66, 3-(4-Acetylphenyl)-1-methyl-4-(2-methyl-1H-indol-3-yl)-1H-pyrrole-2,5-dione] was tested, and the GSK3β enzyme activity ([1]; 10 μM PDA-66) was “seems to enhance enzyme activity”, the GSK3β kinase activity ([1]; 0.25-1 μM PDA-66, 30 min at 30° C., vs. DMSO control) was “significantly inhibited; also recorded: inhibition of the enzyme” and the “dose response relationship of GSK3β kinase activity” value ([1]; FIG. 1) was “bell shaped dose response relationship”. The inhibition of proliferation [2, 11] was “significant inhibition”, the cell numbers [2, 12] was “decrease in cell numbers i.e. below the amount of seeded cells” and the inhibition of proliferation [3, 11] was “significant inhibition”. For the same compound, the cell numbers [3, 12] was “decrease in cell numbers i.e. below the amount of seeded cells”, the inhibition of proliferation [4, 11] was “significant inhibition” and the cell numbers [4, 12] was “decrease in cell numbers i.e. below the amount of seeded cells”. The inhibition of proliferation [5, 11] was “significant inhibition”, the cell numbers [5, 12] was “decrease in cell numbers i.e. below the amount of seeded cells” and the “metabolic activity compared to control cells treated with DMSO” value [6] was 35.5±17%. The IC50 ([7]; Homo sapiens, Jurkat cells, 72 h of incubation) was 1280 nM, the “metabolic activity compared to control cells treated with DMSO” value ([7]; Jurkat, 0.5 μM PDA-66, 72 h, mean±SD) was 66.7±8% and the “metabolic activity compared to control cells treated with DMSO” value [8] was 33.3±4.4%. For the same compound, the IC50 ([9]; Homo sapiens, SEM cells, 72 h of incubation) was 410 nM, the “metabolic activity compared to control cells treated with DMSO” value ([9]; SEM, 0.5 μM PDA-66, 72 h, mean±SD) was 35.7±8.3% and the “cleavage of caspases 3 and 7 and PARP” value [10] was “induced cleavage”.
